Where two headings read alike, the source gives them in different places.
Key:
[1] = test system: total α-tubulin (α-Tub) levels in QBI293 cells; experiment: QBI293 cell assay: total α-tubulin ELISA; type: cell-based
How it was run: (§1)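 AcTub and α-Tub were quantified by ELISA in whole-cell extracts normalized by BCA protein and expressed relative to vehicle. AcTub changes were also scaled to a 100 nM reference stabilizer control.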

[2] = test system: acetylated α-tubulin (AcTub) levels in QBI293 cells; experiment: QBI293 cell assay of MT stabilization: acetylated α-tubulin ELISA; type: cell-based
How it was run: as §1

[3] = Plasma pharmacokinetics in CD-1 mice; type: in vivo, mouse; conditions: i.v. 5 mg/kg
Description: Studies to determine the pharmacokinetic properties of compounds 53 and 60 were conducted at Touchstone Biosciences (Plymouth Meeting, PA). For the determination of plasma pharmacokinetics, three male CD-1 mice (2–3 months of age) were injected i.v. (tail vein) with test compound at a dose of 5 mg/kg in a solution of 10% DMSO, 40% polyethylene glycol, and 50% water, and another three male CD-1 mice received oral gavage dosing of 60 formulated as above at a dose of 20 mg/kg. Blood samples were collected from the saphenous or submandibular veins at multiple time points after dosing and collected in Greiner MiniCollect K2EDTA tubes. Compound levels in plasma were determined by LC-MS/MS, using protocols similar to those previously described.[16],[22]

[4] = test system: de-tyrosinated α-tubulin (GluTub) in brain of WT mice; experiment: Brain PD: Glu-tubulin in brain tissue after compound treatment; type: in vivo, mouse; conditions: WT CD-1 mice, 1 mg/kg i.p. once daily for two consecutive days
Description: Finally, to evaluate target engagement in the CNS, PD studies were conducted to determine compound-dependent elevations in the stable MT marker, de-tyrosinated α-tubulin (GluTub), in brain homogenates from compound-treated WT mice.
All animal protocols were approved by the University of Pennsylvania Institutional Animal Care and Use Committee (IACUC). […] Compounds were diluted from 20 or 40 mM DMSO stock solutions into 30% Kolliphor EL (Sigma-Aldrich) phosphate-buffered saline, pH 7.4. After 4 h following the second injection, mice were euthanized and cortices and hippocampi were isolated from each brain and placed in 0.2 mL of ice-cold radioimmunoprecipitation assay (RIPA) buffer (50 mM Tris, 150 mM NaCl, 5 mM EDTA, 0.5% sodium deoxycholate, 1% NP-40, 0.1% sodium dodecyl sulfate (SDS), pH 8.0) containing protease inhibitor (PI) cocktail (Sigma-Aldrich), 1 mM phenylmethylsulfonyl fluoride (PMSF) (Sigma-Aldrich), and 3 μM trichostatin A (TSA) (Sigma-Aldrich). The brain samples were homogenized with a handheld battery-operated mixer and subsequently sonicated. After centrifugation at 100,000g for 30 min at 4 °C, supernatant samples were transferred to a new tube and the pellets were resuspended in 0.15 mL of RIPA buffer and again homogenized, sonicated, and centrifuged. The supernatant from the second centrifugation was pooled with that from the first. The combined supernatant samples were assessed for protein concentration using a BCA assay (Thermo Fisher Scientific), and equal protein amounts from each brain sample underwent separation by 10% sodium dodecyl sulfate polyacrylamide gel electrophoresis (SDS-PAGE) followed by transfer onto nitrocellulose membranes essentially as previously described.[11] […] Incubation with infrared dye-conjugated secondary antibodies and subsequent imaging and quantification of the blots on the Odyssey imaging system were as described.[11]

## C[C@@H](Nc1c(-c2c(F)cc(C#CCCO)cc2F)c(Cl)nc2ncnn12)C(C)(C)C [Compound 53, (R)-4-(4-(5-Chloro-7-((3,3-dimethylbutan-2-yl)amino)-[1,2,4]triazolo[1,5-a]pyrimidin-6-yl)-3,5-difluorophenyl)but-3-yn-1-ol]
[1]; 4 h, 1 uM compound, read-out: AlfaTub (1uM)
  fold induction at 1 µM: 0.98
[1]; 4 h, 10 uM compound, read-out: AlfaTub (10 uM)
  fold induction at 10 µM: 0.98
[1]; 4 h incubation, 1 μM, read-out: α-Tub 1 μM, fold-change compared to vehicle (DMSO)-treated cells
  fold induction at 1 µM: 0.98 ± 0.04
[1]; 4 h incubation, 10 μM, read-out: α-Tub 10 μM, fold-change compared to vehicle (DMSO)-treated cells
  fold induction at 10 µM: 0.98 ± 0.21
[2]; 1 uM compound, normalized
  AcTub (1 uM - normalized): 0.57
[2]; 10 uM compound, normalized
  AcTub (10 uM - normalized): 0.81
[2]; 4 h, 1 uM compound, read-out: AcTub (1uM)
  fold induction at 1 µM: 3.67
[2]; 4 h, 10 uM compound, read-out: AcTub (10 uM)
  fold induction at 10 µM: 5.25
[2]; 4 h incubation, 1 μM
  AcTub 1 μM, fold-change compared to positive control compound 5 (100 nM) (in parentheses): 0.57 fold-change
[2]; 4 h incubation, 1 μM, read-out: AcTub 1 μM, fold-change compared to vehicle (DMSO)-treated cells
  fold induction at 1 µM: 3.67 ± 0.34
[2]; 4 h incubation, 10 μM
  AcTub 10 μM, fold-change compared to positive control compound 5 (100 nM) (in parentheses): 0.81 fold-change
[2]; 4 h incubation, 10 μM, read-out: AcTub 10 μM, fold-change compared to vehicle (DMSO)-treated cells
  fold induction at 10 µM: 5.25 ± 0.89
[3]
  half-life (T1/2): relatively prolonged half-life
[4]
  brain GluTub (GluTub-to-total α-Tub ratio) relative to vehicle-treated mice: significant elevations in brain GluTub
